Reference: ChEMBL document CHEMBL3351390, “DNA repair and redox activities and inhibitors of apurinic/apyrimidinic endonuclease 1/redox effector factor 1 (APE1/Ref-1): a comparative analysis and their scope and limitations toward anticancer drug development” (J Med Chem, 2014)

target: DNA repair nuclease/redox regulator APEX1 (Homo sapiens, UniProt P27695); assay: Inhibition of human APE1 after 25 mins by fluorescence assay
Sequence (P27695 whole entry): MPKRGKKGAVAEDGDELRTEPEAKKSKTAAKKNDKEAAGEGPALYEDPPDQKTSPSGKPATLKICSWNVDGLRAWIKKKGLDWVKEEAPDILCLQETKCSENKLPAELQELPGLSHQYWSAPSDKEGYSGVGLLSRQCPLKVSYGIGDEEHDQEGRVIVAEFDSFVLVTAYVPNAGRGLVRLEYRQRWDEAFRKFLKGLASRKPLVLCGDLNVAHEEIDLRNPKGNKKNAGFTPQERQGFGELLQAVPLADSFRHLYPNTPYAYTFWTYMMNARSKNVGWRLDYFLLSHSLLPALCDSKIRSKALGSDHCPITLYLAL

Row | IC50 | SMILES
1 | 0.25 µM | Nc1c(S(=O)(=O)O)cc(Nc2ccc(Nc3nc(Cl)nc(Nc4ccc(S(=O)(=O)O)cc4)n3)c(S(=O)(=O)O)c2)c2c1C(=O)c1ccccc1C2=O
2 | 3 µM | O=C(O)c1cc2cccc([N+](=O)[O-])c2[nH]1
3 | 10 µM | O=C(O)C1=CC(=C(c2ccc(O)c(C(=O)O)c2)c2ccc(O)c(C(=O)O)c2)C=CC1=O [AURINTRICARBOXYLIC ACID]
